Measured values taken from ChEMBL document CHEMBL1129075, “Synthesis and binding activity of some pyrazolo[1,5-c]quinazolines as tools to verify an optional binding site of a benzodiazepine receptor ligand” (J Med Chem, 1996).

What was measured:
[1] = system: GABA-A receptor; anion channel; experiment: Displacement of [3H]flunitrazepam at GABA-A benzodiazepine receptor in rat brain cortical membranes (insoluble); assay type: cell membranes, Membrane
[2] = target: GABA-A receptor; anion channel; experiment: Displacement of [3H]flunitrazepam at GABA-A benzodiazepine receptor in rat brain cortical membranes; assay type: cell membranes, Membrane

Row | SMILES | Ki [1] | Ki [2]
1 | CCOC(=O)c1cc2c3ccccc3[nH]c(=O)n2n1 | – | 28 nM
2 | CCOC(=O)c1cc2c3ccccc3nc(S)n2n1 | – | 3290 nM
3 | CCOC(=O)c1cc2c3ccccc3ncn2n1 | – | > 10000 nM
4 | c1ccc(-c2cc3n(n2)CNc2ccccc2-3)cc1 | – | 6570 nM
5 | CCOC(=O)c1cc2c3ccccc3n(CC)c(=O)n2n1 | – | > 10000 nM
6 | CCOC(=O)c1cc2c3ccccc3n(C)c(=O)n2n1 | – | > 10000 nM
7 | CCOC(=O)c1cc2c(cn1)[nH]c1ccccc12 | – | 4.5 nM
8 | COC(=O)c1cc2c3ccccc3[nH]c(=O)n2n1 | – | 22 nM
9 | CCOC(=O)c1cc2n(n1)CNc1ccccc1-2 | – | 70 nM
10 | CC(C)OC(=O)c1cc2c3ccccc3nc(O)n2n1 | – | 434 nM

Further lines, results first:

Row | Ki [1] | Ki [2] | SMILES
11 | Insoluble | – | Oc1nc2ccccc2c2cc(-c3nnco3)nn12
12 | – | 7.4 nM | Oc1nc2ccccc2c2cc(-c3cccs3)nn12
13 | – | > 10000 nM | O=C(O)c1cc2c3ccccc3nc(O)n2n1
14 | – | 59 nM | Oc1nc2ccccc2c2cc(-c3ccccc3)nn12
15 | – | > 10000 nM | c1ccc(-c2cc3c4ccccc4ncn3n2)cc1
16 | – | 4590 nM | Cc1nnc(-c2cc3c4ccccc4nc(O)n3n2)o1
17 | – | 53 nM | Oc1nc2ccccc2c2cc(-c3ccccn3)nn12
18 | – | 50 nM | CCOC(=O)c1cc2c3cc(Cl)ccc3nc(O)n2n1
19 | – | > 10000 nM | Cn1c(=O)n2nc(-c3ccccc3)cc2c2ccccc21
20 | – | 16 nM | Oc1nc2ccccc2c2cc(-c3ccco3)nn12
21 | – | 5300 nM | Oc1nc2ccccc2c2cc(-c3ccc(Cl)cc3)nn12
22 | – | 41 nM | Oc1nc2ccc(Cl)cc2c2cc(-c3ccco3)nn12
23 | – | 3150 nM | O=C(Oc1ccccc1)c1cc2c3ccccc3nc(O)n2n1
24 | – | 105 nM | Oc1nc2ccc(Cl)cc2c2cc(-c3ccccc3)nn12
25 | – | > 10000 nM | Sc1nc2ccccc2c2cc(-c3ccccc3)nn12
